# Measurements: patent US20230174562A1, “RADIO-AND CHEMO-PROTECTIVE COMPOUNDS” (TONIX PHARMACEUTICALS, INC., priority 2020, published 2023)
# Assays:
# mice = assay: Phase 1 maximum tolerated dose (MTD) determination in mice; assay type: in vivo; settings: male mice; oral gavage; 1,000 mg/kg
# Experimental: Male mice were randomized and assessed in two phases: 1) for maximum tolerated doses (MTDs) of PrC-210, DzCH2SH, and 2Pip-2PrSH to determine dose levels for the efficacy study and 2) to evaluate the efficacy of the compounds when administered 60±5 minutes prior to exposure to total body irradiation (TBI) at an LD100/30 dose (990 cGy) (Tables 1 and 2).
# For Phase 1 or 2, sterile water (vehicle), PrC-210, DzCH2SH, and 2Pip2PrSH were administered at 10 mL/kg calculated based on the most recent body weight via oral gavage. Animals were not fasted prior to administration of the compounds or vehicle. Mice in Phase 1 were administered the dose on Day 1 and mice in Phase 2 were administered the dose 60±5 minutes prior to TBI on Day 0.
# All surviving animals were observed once daily for clinical signs (e.g., unusually low or high activity, lethargy, shivering, appearance of fur, bloody and water stool, and other symptoms of moribundity) at 1-2 hours post-irradiation and/or post-dose and once daily on non-dosing days until Day 4 (Phase 1) or Day 30 (Phase 2).
# In Phase 1 (Table 1), all animals were normal when observed and all body weights were within normal range. The dose level of 1000 mg/kg was selected for Phase 2.
# [1] = Hygroscopicity on 10 minute exposure to the atmosphere; assay type: physicochemical; settings: 10 minute exposure of a small amount to the atmosphere; diHCl salt
# Experimental: In Reaction E: 48 ml of HCl in methanol, 6 eq. (1.25 M solution, Aldrich #17935) was added to a solution of compound V, 3.5 g, 0.010 moles dissolved in 10 ml dry methanol in a flask under argon and equipped for magnetic stirring and the reaction was stirred at room temperature for 24 hours. […] The solution was degassed by gently bubbling argon into the solution for 30 minutes. Concentration (rotary evaporator at ambient temperature) provided a crude oily residue which was triturated with hexane producing a white solid. The hexane was removed (via pipette suction) and replaced with dry THF (25 ml). After an additional 10 minutes of trituration, the THF was removed and replaced with dry hexane (25 ml). After an additional 10 minutes of trituration, the hexane was removed and the resulting white solid was dried in vacuo over P2O5 providing 1.95 grams of diHCl salt of PrC-210 (88%). […]
# In Reaction P: Compound XVI, 2.2 grams, 0.0058 moles was placed in a round-bottom flask equipped for magnetic stirring followed by 15 mL anhydrous trifluoroacetic acid (CF3COOH, Aldrich #8.08260). The flask was fitted with a condenser and the solution was refluxed for 5 hours whereupon it was determined that the reaction was complete using TLC by observing the disappearance of starting material and the appearance of a highly polar product, which stained positive with ninhydrin. […]
# [2] = system: mice exposed to radiation; assay: Protection of mice from lethal radiation (8 Gy, LD100); assay type: in vivo; settings: oral gavage 15-90 minutes prior to 8 Gy (LD100), 60 days post irradiation
# Experimental: The radioprotective efficacy of the thiols, prodrugs and double prodrugs according to this disclosure is assessed in mice. The compounds of the disclosure are administered via oral gavage to mice, and are compared to mice that have been administered 3-(methylamino)-2-(methylaminomethyl)propane-1-thiol (PrC-210), as well as to a control group or mice that are administered vehicle (i.e., containing no radioprotective additive).
# More specifically, mice are assigned to three groups (Groups 1, 2 and 3). A control group, Group 1, is treated via oral gavage with vehicle (Lactated Ringer's and 5% dextrose, adjusted to pH 7.3 with sodium bicarbonate) 15-90 minutes prior to a dose of 8 Gy (LD100) radiation. Group 2 is treated via oral gavage with PrC-210, as a positive control, dissolved in Lactated Ringer's at a dose of 200 mg/kg 15-90 minutes prior to irradiation with 8 Gy (LD100). Group 3 is treated via oral gavage with compound 1 (PrC-210-PT) dissolved in Lactated Ringer's at a dose of 308 mg/kg 15-90 minutes prior to irradiation with 8 Gy (LD100). The mortality of the three groups is assessed for 60 days post irradiation. The experiment is repeated with doses of PrC-210 ranging from 200 mg/kg to 450 mg/kg. Molar equivalent dosages of the test compound (compound 1, Prc-210-PT) to PrC-210 are also assessed.
# The experiment is repeated to assess the efficacy of compounds 2-23 as radioprotectors.
structure (smiles),measurement,setting,value
"CNCC(CS)CNC [PrC-210, 3-(methylamino)-2-((methylamino)methyl)propane-1-thiol, reference compound]",toxicity at the highest tested dose,mice,did not produce any toxicity
same,hygroscopicity,[1],did not show any signs of hygroscopicity
same,rate of survival versus control group,[2],control group demonstrates a reduced rate of survival compared to the mice treated with
